Measurements as given in patent US20050288247A1, “Inducible inactivation of synaptic transmission” (Cold Spring Harbor Laboratory, priority 2004, published 2005).

Experiments:
[1] = tested on: synaptic transmission in acute cortical brain slices; test: Whole cell EPSC measurements in layer 2 pyramidal neurons in acute brain slices; assay type: cell-based, mice
Source text: We further characterized CID-dependent inactivation of synaptic transmission using whole cell measurements of EPSC in layer (L) 2 pyramidal neurons in acute brain slices. MIST constructs were introduced into L 3 cells in vivo using in utero viral vector mediated gene delivery (VAMP/Syb MIST) or electroporation (Sph-StxTM MIST). Synaptic transmission was evoked with an extracellular stimulation electrode placed in a band of transfected/infected neurons, below (within 200 μm) the recording pipette.
Cortical brain slices (300 μm thick) were prepared from young mice (postnatal day 9-14) using a vibrating-blade microtome (VT1000S, Leica Microsystems). Chilled cutting solution contained 110 mM choline chloride, 25 mM NaHCO3, 25 mM D-glucose, 11.6 mM sodium ascorbate, 7 mM MgSO4, 3.1 mM sodium pyruvate, 2.5 mM KCl, 1.25 mM NaH2PO4, and 0.5 mM CaCl2. Slices were then transferred to artificial cerebrospinal fluid (“ACSF”) containing 127 mM NaCl, 25 mM NaHCO3, 25 mM D-glucose, 2.5 mM KCl, 2 mM MgCl2,1 mM CaCl2, and 1.25 mM NaH2PO4, aerated with 95% O2/5% CO2. Slices in ACSF were first incubated at 34° C. for 0.5 hr, then maintained at room temperature prior to use. For recordings, ACSF contained 4 mM MgCl2, 4 mM CaCl2 and […] CPP.
Neurons were visualized with infrared differential interference contrast optics, and patched using borosilicate electrodes (resistances, 4-7 MΩ). Access resistances were in the range 10-30 MΩ. Intracellular solution contained 120 mM CsMeSO3, 20 mM CsCl, 4 mM NaCl, 10 mM HEPES, 10 mM BAPTA, 4 mM Mg2ATP, and 0.3 mM Na2GTP, 14 mM sodium phosphocreatine, 3 mM ascorbate, and 0.1 Alexa-594 (Molecular Probes); pH was adjusted to 7.25 with CsOH. Excitatory currents were measured at a holding potential of −65 mV, close to reversal for fast inhibition. MIST-expressing neurons were stimulated with tungsten bipolar electrode in the middle of transfected region, and monosynaptic responses were recorded from cells within […]. Responses were amplified (Multiclamp, Axon Instruments), filtered at 1 kHz, and digitized at 10 kHz. […]

[2] = tested on: synaptic transmission of cortical neurons in cultured brain slices; test: Evoked EPSCs in cultured brain slices infected with adenovirus-based VAMP MIST construct; assay type: cell-based
Source text: We first tested the VAMP MIST construct in cultured brain slices. The adenovirus-based VAMP MIST construct was used to infect cortical neurons in cultured brain slices. Synaptic transmission was evoked with extracellular stimulation.

CC[C@H](C(=O)N1CCCCC1C(=O)O[C@H](CCc1ccc(OC)c(OC)c1)c1cccc(OCC(=O)NCCCN(C)C)c1)c1cc(OC)c(OC)c(OC)c1 (some centres unmarked) [AP21998]
recovery of synaptic response with reverser ([1]; excess of monomeric reverser, 5 μM AP21998): rapid partial recovery
recovery of monosynaptic EPSC and network discharge ([2]; 200 nM AP21998 reverser after homodimerizer): rapid recovery

CC[C@H](C(=O)N1CCCC[C@H]1C(=O)O[C@H](CCc1ccc(OC)c(OC)c1)c1cccc(OCC(=O)NCC(CNC(=O)COc2cccc([C@@H](CCc3ccc(OC)c(OC)c3)OC(=O)[C@@H]3CCCCN3C(=O)[C@@H](CC)c3cc(OC)c(OC)c(OC)c3)c2)CN(C)C)c1)c1cc(OC)c(OC)c(OC)c1 [AP20187]
amplitude of monosynaptic EPSCs ([1]; bath application 100 nM AP20187, VAMP/Syb MIST): rapid decrease
amplitudes of monosynaptic EPSC and network discharge ([2]; 20 nM AP20187 in DMSO added to the bath, VAMP MIST infected slices): rapid decrease

AP21967
amplitude of monosynaptic EPSCs ([1]; bath application 500 nM AP21967, Sph-StxTM MIST): rapid decrease
